# Read-outs that look alike come from different tables or passages of the source.
# Experiments:
# [1] = tested on: E. faecalis ATCC 29212 VSE; experiment: MIC broth microdilution; format: cell-based; details: Enterococcus faecalis, ATCC29212
# Method: (§1) Twenty-four test agents were shipped to Micromyx and stored at −20° C. until assayed. The compounds were dissolved in 100% DMSO at 6.46 mg/mL prior to testing. Comparator drugs were supplied by Micromyx and were handled as described below:
# (§2) The test organisms for the assay were recent clinical isolates or reference strains acquired from the American Type Culture Collection (ATCC; Manassas, Va.). Upon receipt, the isolates were streaked onto Trypticase Soy Agar II+5% sheep blood (TSAB). Colonies were harvested from the plates and a cell suspension was prepared in Trypticase Soy Broth containing cryoprotectant. Aliquots were then frozen at −80° C. Prior to the assay, the frozen seeds of all bacterial isolates to be tested were thawed and streaked for isolation onto TSAB (BD/BBL, Sparks, Md.; Lot No. 9011894), and were incubated overnight at 35° C.
# (§3) The test medium for all isolates was cation-adjusted Mueller Hinton broth (CAMHB; BD/BBL; Lot No. 8190586). CAMHB (Cation Adjusted Mueller Hinton Broth) was supplemented with 3% (v/v) lysed horse blood (LHB; Hemostat, Dixon, Calif.; Lot No. 474990) for the testing of streptococci.
# (§4) MIC values were determined using a broth microdilution method as recommended by CLSI. Automated liquid handlers (Multidrop 384, Labsystems, Helsinki, Finland; Biomek 2000 and Biomek F/X, Beckman Coulter, Fullerton Calif.) were used to conduct serial dilutions and make liquid transfers.
# (§5) The wells of standard 96-well microdilution plates (Costar 3795, Corning Inc., Corning, N.Y.) were filled with 150 μL of the appropriate diluent in columns 2-12 on the Multidrop 384 (DMSO for the thiostrepton analogs, deionized H2O for vancomycin and ceftazidime). These plates were used to prepare the drug “mother plate” which provided the serial drug dilutions for the replicate “daughter plates”. The compounds (300 μL) were dispensed at 101× the highest concentration to be tested into the appropriate row of the “mother plate”. The Biomek 2000 was used to transfer 150 μL of each stock solution from the wells in Column 1 of the mother plate to make ten subsequent 2-fold serial dilutions. The wells of Column 12 contained no drug and served as the organism growth control wells. The daughter plates were loaded with 190 μL of test medium using the Multidrop 384.
# (§6) The daughter plates were prepared on the Biomek F/X instrument which transferred […] of drug solution from each well of the mother plate to each corresponding well of each daughter plate in a single step. The wells of the daughter plates ultimately contained 190 μL of media, 2 μL of drug solution, and 10 μL of inoculum prepared as described below. The final concentration of DMSO (if used as a solvent) in the test well was 1%.
# (§7) A standardized inoculum of each organism was prepared per CLSI methods. A suspension of organisms from a fresh plate was prepared in CAMHB to equal the turbidity of a 0.5 McFarland standard. The suspensions were diluted 1:20 in CAMHB, or in the case of streptococci CAMHB with LHB. The inoculum for each organism was dispensed into sterile reservoirs divided by length (Beckman Coulter), and the Biomek 2000 was used to inoculate the plates. Daughter plates were placed on the Biomek 2000 work surface reversed so that inoculation took place from low to high drug concentration. The Biomek 2000 delivered 10 μL of standardized inoculum into each well. These dilutions yielded a final cell concentration in the daughter plates of approximately 5.0×10^5 CFU/mL.
# (§8) Plates were stacked 3 high, covered with a lid on the top plate, placed in plastic bags, and incubated at 35° C. for 16-20 hr for all organisms except streptococci which were incubated for 20-24 hr. Following incubation, the microplates were removed from the incubator and viewed from the bottom using a plate viewer. The MIC was read and recorded as the lowest concentration of drug that inhibited visible growth of the organism. […]
# E. faecalis MMX 486 VRE = experiment: MIC broth microdilution; format: cell-based; details: Enterococcus faecalis
# Method: as §1, §2, §3, §4, §5, §6, §7, §8
# E. faecium MMX 485 VRE = experiment: MIC broth microdilution; format: cell-based; details: Enterococcus faecium
# Method: as §1, §2, §3, §4, §5, §6, §7, §8
# [2] = tested on: S. pneumoniae ATCC 49619 PISP; experiment: MIC broth microdilution; format: cell-based; details: Streptococcus pneumoniae, ATCC49619, 20 h
# Method: as §1, §2, §3, §4, §5, §6, §7, §8
# E. faecium MMX 708 VSE = experiment: MIC broth microdilution; format: cell-based; details: Enterococcus faecium, MMX708VSE
# Method: as §1, §2, §3, §4, §5, §6, §7, §8
# [3] = tested on: S. aureus ATCC 29213 MSSA; experiment: MIC broth microdilution; format: cell-based; details: Staphylococcus aureus
# Method: as §1, §2, §3, §4, §5, §6, §7, §8
# E. coli ATCC 25922 = experiment: MIC broth microdilution; format: cell-based; details: Escherichia coli, ATCC25922
# Method: as §1, §2, §3, §4, §5, §6, §7, §8
# S. aureus MMX 8088 MRSA = experiment: MIC broth microdilution; format: cell-based; details: Staphylococcus aureus
# Method: as §1, §2, §3, §4, §5, §6, §7, §8
# S. pyogenes ATCC 19615 = experiment: MIC broth microdilution; format: cell-based; details: Streptococcus pyogenes, ATCC19615, 20 h
# Method: as §1, §2, §3, §4, §5, §6, §7, §8
# [4] = Aqueous solubility analysis in MOPS buffer; format: physicochemical; details: thermodynamic from solid, after 24 hours in 10 mM aqueous MOPS buffer, pH 7.2
# Method: A 2 dram vial was loaded with ˜0.5 mg of a thiostrepton derivative and suspended in ˜4 mL of aqueous 10 mM MOPS buffer (pKa 7.2). The suspension was stirred vigorously for 24 h to ensure equilibration, then filtered through a […] centrifuge filtration unit. A 3.0 mL aliquot was concentrated, and the dried residue was diluted with 0.30 mL of 1:1 1,4-dioxane/H2O (10× original concentration necessitated by detection limits). The total UV absorbance (200-300 nm) was measured in triplicate by UPLC runs with a photodiode array detector. A calibration curve for each compound was created using data points from 3 trials each of concentrations in 1:1 1,4-dioxane/H2O ranging from […]. These concentrations were plotted against their respective average absorbances. The experimental concentration of each compound was calculated by dividing the found μg/mL value by the residue concentration factor of 10 to yield the actual solubility value.
# [5] = E. faecalis ATCC 29212 VSE, CAMHB, read-out: MIC
# [6] = E. faecalis MMX 486 VRE, CAMHB, read-out: MIC
# [7] = E. faecium MMX 485 VRE, CAMHB, read-out: MIC
# [8] = S. pneumoniae ATCC 49619 PISP, CAMHB with 3% lysed horse blood, read-out: MIC
# [9] = E. faecium MMX 708 VSE, CAMHB, read-out: MIC
# [10] = S. aureus ATCC 29213 MSSA, CAMHB, read-out: MIC
# [11] = E. coli ATCC 25922, CAMHB, read-out: MIC
# [12] = S. aureus MMX 8088 MRSA, CAMHB, read-out: MIC
# [13] = S. pyogenes ATCC 19615, CAMHB with 3% lysed horse blood, read-out: MIC
"MIC [1, 5] [µg/mL]",MIC (E. faecalis MMX 486 VRE; [6]) [µg/mL],MIC (E. faecium MMX 485 VRE; [7]) [µg/mL],"MIC [2, 8] [µg/mL]",MIC (E. faecium MMX 708 VSE; [9]) [µg/mL],"MIC [3, 10] [µg/mL]",MIC (E. coli ATCC 25922; [11]) [µg/mL],MIC (S. aureus MMX 8088 MRSA; [12]) [µg/mL],MIC (S. pyogenes ATCC 19615; [13]) [µg/mL],solubility at 24 h ([4]; aqueous 10 mM MOPS buffer) [µg/mL],Compound,MIC [1] [µg/mL],MIC (E. faecalis MMX 486 VRE; VRE) [µg/mL],MIC (E. faecium MMX 485 VRE; VRE) [µg/mL],MIC [2] [µg/mL],MIC (E. faecium MMX 708 VSE) [µg/mL],MIC [3] [µg/mL],MIC (E. coli ATCC 25922) [µg/mL],MIC (S. aureus MMX 8088 MRSA; MRSA) [µg/mL],MIC (S. pyogenes ATCC 19615) [µg/mL],solubility at 24 h [4] [µg/mL]
,,,,,,,,,,C=C(NC(=O)c1csc(C2=N[C@@H]3c4csc(n4)[C@H]4NC(=O)c5csc(n5)[C@H]([C@](C)(O)[C@@H](C)O)NC(=O)C5CSC(=N5)/C(=C/C)NC(=O)[C@H]([C@@H](C)O)NC(=O)c5csc(n5)[C@]3(CC2)NC(=O)[C@H](C)NC(=O)C(=C)NC(=O)[C@H](C)NC(=O)[C@H]([C@@H](C)CC)N[C@@H]2C=Cc3c([C@H](C)O)cc(nc3[C@H]2O)C(=O)O[C@@H]4C)n1)C(=O)NC(=CNC(=O)c1ccccc1)C(N)=O [RJS-02],1,1,0.5,0.008,0.5,1,> 64,2,0.002,< 1
1,1,0.5,0.004,1,1,> 64,2,0.004,1.1,C=C(NC(=O)c1csc(C2=N[C@@H]3c4csc(n4)[C@H]4NC(=O)c5csc(n5)[C@H]([C@](C)(O)[C@@H](C)O)NC(=O)C5CSC(=N5)/C(=C/C)NC(=O)[C@H]([C@@H](C)O)NC(=O)c5csc(n5)[C@]3(CC2)NC(=O)[C@H](C)NC(=O)C(=C)NC(=O)[C@H](C)NC(=O)[C@H]([C@@H](C)CC)N[C@@H]2C=Cc3c([C@H](C)O)cc(nc3[C@H]2O)C(=O)O[C@@H]4C)n1)C(=O)NC(=CNC(=O)c1cccc(C(C)=O)c1)C(N)=O [RJS-05],,,,,,,,,,
1,1,0.5,0.015,1,0.5,> 64,1,0.008,28,C=C(NC(=O)c1csc(C2=N[C@@H]3c4csc(n4)[C@H]4NC(=O)c5csc(n5)[C@H]([C@](C)(O)[C@@H](C)O)NC(=O)C5CSC(=N5)/C(=C/C)NC(=O)[C@H]([C@@H](C)O)NC(=O)c5csc(n5)[C@]3(CC2)NC(=O)[C@H](C)NC(=O)C(=C)NC(=O)[C@H](C)NC(=O)[C@H]([C@@H](C)CC)N[C@@H]2C=Cc3c([C@H](C)O)cc(nc3[C@H]2O)C(=O)O[C@@H]4C)n1)C(=O)NC(=CNC(=O)COC)C(N)=O [RJS-06],,,,,,,,,,
